pIC50: −log10 of the molar value. Structures can show the parent of a compound that is named as a salt.

In one assay the target is T1, IRAK4 (Homo sapiens, UniProt Q9NWZ3).
T1 sequence (Q9NWZ3 1-460): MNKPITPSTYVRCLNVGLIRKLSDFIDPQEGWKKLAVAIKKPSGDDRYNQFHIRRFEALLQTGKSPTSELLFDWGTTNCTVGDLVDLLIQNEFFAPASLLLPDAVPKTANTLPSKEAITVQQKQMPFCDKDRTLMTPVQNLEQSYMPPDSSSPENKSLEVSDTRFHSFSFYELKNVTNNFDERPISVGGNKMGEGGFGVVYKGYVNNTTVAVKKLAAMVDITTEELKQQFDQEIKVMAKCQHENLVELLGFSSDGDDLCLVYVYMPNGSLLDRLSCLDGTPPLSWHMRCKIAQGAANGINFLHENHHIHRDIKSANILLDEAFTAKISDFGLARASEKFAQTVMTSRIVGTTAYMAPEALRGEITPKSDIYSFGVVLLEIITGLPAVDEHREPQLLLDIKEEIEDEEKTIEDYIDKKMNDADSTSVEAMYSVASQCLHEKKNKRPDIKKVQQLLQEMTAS
Put plainly: biochemical.
Settings: not given
For the molecule `COc1ncccc1NC(=O)c1cn2cc(C34COC(C)(C3)C4)nc2cc1OC1CCC1` [Example 526, 7-Cyclobutoxy-N-(2-methoxypyridin-3-yl)-2-(1-methyl-2-oxa-bicyclo[2.1.1]hexan-4-yl)imidazo[1,2-a]pyridine-6-carboxamide], the pIC50 (as a rule, the negative decadic logarithm of the IC50, by convention in mol/L) was 9.52.
`CC12CC(c3cn4cc(C(=O)Nc5ccn(CC#N)n5)c(OC5CCC5)cc4n3)(CO1)C2` [Example 527, N-(1-(cyanomethyl)-1H-pyrazol-3-yl)-7-cyclobutoxy-2-(1-methyl-2-oxabicyclo[2.1.1]hexan-4-yl)imidazo[1,2-a]pyridine-6-carboxamide] gave a pIC50 of 8.36. Against the preceding molecule, the pIC50 is 1.16 log units lower.
The same measure, in the same setting: for `CCn1ccc(NC(=O)c2cn3cc(C45COC(C)(C4)C5)nc3cc2OC2CCC2)n1` [Example 528, 7-Cyclobutoxy-N-(1-ethyl-1H-pyrazol-3-yl)-2-(1-methyl-2-oxabicyclo[2.1.1]hexan-4-yl)imidazo[1,2-a]pyridine-6-carboxamide] the value was 8.28; for `COc1cccc(NC(=O)c2cn3cc(C45COC(C)(C4)C5)nc3cc2OC2CCC2)n1` [Example 529, 7-Cyclobutoxy-N-(6-methoxypyridin-2-yl)-2-(1-methyl-2-oxabicyclo[2.1.1]hexan-4-yl)imidazo[1,2-a]pyridine-6-carboxamide], 9.52.
The molecule `CC12CC(c3cn4cc(C(=O)Nc5ccn(CC(F)F)n5)c(OC5CCC5)cc4n3)(CO1)C2` [Example 530, 7-Cyclobutoxy-N-(1-(2,2-difluoroethyl)-1H-pyrazol-3-yl)-2-(1-methyl-2-oxabicyclo[2.1.1]hexan-4-yl)imidazo[1,2-a]pyridine-6-carboxamide] had a pIC50 of 8.25. Against the preceding molecule, the pIC50 is 1.27 log units lower.
As for `Cc1cc(-n2ccc(NC(=O)c3cn4cc(C56CCC(C)(C5)OC6)nc4cc3OC3CCC3)n2)ccn1` (stereo not shown) [Example 531, 7-Cyclobutoxy-2-(1-methyl-2-oxabicyclo[2.2.1]heptan-4-yl)-N-(1-(2-methylpyridin-4-yl)-1H-pyrazol-3-yl)imidazo[1,2-a]pyridine-6-carboxamide], the pIC50 was 9.10. This pIC50 is 0.85 log units higher than that of the molecule before.
In the case of `CC12CCC(c3cn4cc(C(=O)Nc5ccn(CC#N)n5)c(OC5CCC5)cc4n3)(CO1)C2` (stereo not shown) [Example 532, N-(1-(cyanomethyl)-1H-pyrazol-3-yl)-7-cyclobutoxy-2-(1-methyl-2-oxabicyclo[2.2.1]heptan-4-yl)imidazo[1,2-a]pyridine-6-carboxamide], the negative logarithm of the IC50 (pIC50) is 8.54.
Molecule `CCn1ccc(NC(=O)c2cn3cc(C45CCC(C)(C4)OC5)nc3cc2OC2CCC2)n1` (stereo not shown) [Example 533, 7-Cyclobutoxy-N-(1-ethyl-1H-pyrazol-3-yl)-2-(1-methyl-2-oxabicyclo[2.2.1]heptan-4-yl)imidazo[1,2-a]pyridine-6-carboxamide] gave a pIC50 of 8.43.
`CC12CCC(c3cn4cc(C(=O)Nc5ccn(CC6CC6)n5)c(OC5CCC5)cc4n3)(CO1)C2` (stereo not shown) [Example 534, 7-Cyclobutoxy-N-(1-(cyclopropylmethyl)-1H-pyrazol-3-yl)-2-(1-methyl-2-oxabicyclo[2.2.1]heptan-4-yl)imidazo[1,2-a]pyridine-6-carboxamide] gave a pIC50 of 7.87.
`CCn1cccc(NC(=O)c2cn3cc(C45CCC(C)(C4)OC5)nc3cc2OC2CCC2)c1=O` (stereo not shown) [Example 535, 7-Cyclobutoxy-N-(1-ethyl-2-oxo-1,2-dihydropyridin-3-yl)-2-(1-methyl-2-oxabicyclo[2.2.1]heptan-4-yl)imidazo[1,2-a]pyridine-6-carboxamide] showed a pIC50 of 8.96.
The molecule `CC12CCC(c3cn4cc(C(=O)Nc5cccnc5OC(F)F)c(OC5CCC5)cc4n3)(CO1)C2` (stereo not shown) [Example 536, 7-Cyclobutoxy-N-(2-(difluoromethoxy)pyridin-3-yl)-2-(1-methyl-2-oxabicyclo[2.2.1]heptan-4-yl)imidazo[1,2-a]pyridine-6-carboxamide] had a pIC50 of 8.80.
In the case of `CC12CCC(c3cn4cc(C(=O)Nc5ccn(CCF)n5)c(OC5CCC5)cc4n3)(CO1)C2` (stereo not shown) [Example 537, 7-Cyclobutoxy-N-(1-(2-fluoroethyl)-1H-pyrazol-3-yl)-2-(1-methyl-2-oxabicyclo[2.2.1]heptan-4-yl)imidazo[1,2-a]pyridine-6-carboxamide], the pIC50 was 8.20.
Still for that read-out and setting: for `CC12CCC(c3cn4cc(C(=O)Nc5cccn(C(F)F)c5=O)c(OC5CCC5)cc4n3)(CO1)C2` (stereo not shown) [Example 538, 7-Cyclobutoxy-N-(1-(difluoromethyl)-2-oxo-1,2-dihydropyridin-3-yl)-2-(1-methyl-2-oxabicyclo[2.2.1]heptan-4-yl)imidazo[1,2-a]pyridine-6-carboxamide] the value was 9.52; for `CC(C)Oc1ncccc1NC(=O)c1cn2cc(C34CCC(C)(C3)OC4)nc2cc1OC1CCC1` (stereo not shown) [Example 539, 7-Cyclobutoxy-N-(2-isopropoxypyridin-3-yl)-2-(1-methyl-2-oxabicyclo[2.2.1]heptan-4-yl)imidazo[1,2-a]pyridine-6-carboxamide], 7.64; for `CC12CCC(c3cn4cc(C(=O)Nc5cccn6cnnc56)c(OC5CCC5)cc4n3)(CO1)C2` (stereo not shown) [Example 540, N-([1,2,4]triazolo[4,3-a]pyridin-8-yl)-7-cyclobutoxy-2-(1-methyl-2-oxabicyclo[2.2.1]heptan-4-yl)imidazo[1,2-a]pyridine-6-carboxamide], 9.10.
On the same count and under the same terms, for `COc1cccc(NC(=O)c2cn3cc(C45CCC(C)(C4)OC5)nc3cc2OC2CCC2)n1` (stereo not shown) [Example 541, 7-Cyclobutoxy-N-(6-methoxypyridin-2-yl)-2-(1-methyl-2-oxabicyclo[2.2.1]heptan-4-yl)imidazo[1,2-a]pyridine-6-carboxamide] the value was 9.70; for `Cn1cc(-c2cccc(NC(=O)c3cn4cc(C56CCC(C)(C5)OC6)nc4cc3OC3CCC3)n2)cn1` (stereo not shown) [Example 542, 7-Cyclobutoxy-N-(6-(1-methyl-1H-pyrazol-4-yl)pyridin-2-yl)-2-(1-methyl-2-oxabicyclo[2.2.1]heptan-4-yl)imidazo[1,2-a]pyridine-6-carboxamide], 10.00.
`CC12CCC(c3cn4cc(C(=O)Nc5ccn(CC(F)F)n5)c(OC5CCC5)cc4n3)(CO1)C2` (stereo not shown) [Example 543, 7-Cyclobutoxy-N-(1-(2,2-difluoroethyl)-1H-pyrazol-3-yl)-2-(1-methyl-2-oxabicyclo[2.2.1]heptan-4-yl)imidazo[1,2-a]pyridine-6-carboxamide]: the pIC50 was 8.36.
`CC(C)Oc1cc2nc(C34COC(C3)C4)cn2cc1C(=O)Nc1cccc(C(F)F)n1` [Example 544, 2-(2-Oxabicyclo[2.1.1]hexan-4-yl)-N-(6-(difluoromethyl)pyridin-2-yl)-7-isopropoxyimidazo[1,2-a]pyridine-6-carboxamide]: the pIC50 is 9.70.
The molecule `COc1ncccc1NC(=O)c1cn2cc(C34COC(C3)C4)nc2cc1OC(C)C` [Example 545, 2-(2-Oxabicyclo[2.1.1]hexan-4-yl)-7-isopropoxy-N-(2-methoxypyridin-3-yl)imidazo[1,2-a]pyridine-6-carboxamide] gave a pIC50 of 8.89.
Regarding `CC(C)Oc1cc2nc(C34COC(C3)C4)cn2cc1C(=O)Nc1ccn(C)n1` [Example 546, 2-(2-Oxabicyclo[2.1.1]hexan-4-yl)-7-isopropoxy-N-(1-methyl-1H-pyrazol-3-yl)imidazo[1,2-a]pyridine-6-carboxamide], the pIC50 was 8.07. This pIC50 is 0.82 log units lower than that of the molecule before.
`CC(C)Oc1cc2nc(C34COC(C3)C4)cn2cc1C(=O)Nc1cccn(C(F)F)c1=O` [Example 547, 2-(2-Oxabicyclo[2.1.1]hexan-4-yl)-N-(1-(difluoromethyl)-2-oxo-1,2-dihydropyridin-3-yl)-7-isopropoxyimidazo[1,2-a]pyridine-6-carboxamide] showed a pIC50 of 9.10.
`CC1CC(Oc2cc3nc(C45COC(C)(C4)C5)cn3cc2C(=O)Nc2ccn(C)n2)C1` (stereo not shown) [Example 549] had a pIC50 of 8.47. This pIC50 is 0.63 log units lower than that of the molecule before.
Still for that read-out and setting: for `Cn1ccc(NC(=O)c2cn3cc(C45COC(C)(C4)C5)nc3cc2OC2CC3(CC3)C2)n1` [Example 550] the value was 8.70; for `CC12CC(c3cn4cc(C(=O)Nc5cnn6cccnc56)c(OC5CC5)cc4n3)(CO1)C2` [Example 551], 8.72; for `Cn1ccc(NC(=O)c2cn3cc(C45CCC(C)(C4)OC5)nc3cc2OC2CC2)n1` (stereo not shown) [Example 552], 8.01.
`CC12CCC(c3cn4cc(C(=O)Nc5cccn(C(F)F)c5=O)c(OC5CC5)cc4n3)(CO1)C2` (stereo not shown) [Example 553] had a pIC50 of 8.82.
`CC12CCC(c3cn4cc(C(=O)Nc5cnn6cccnc56)c(OC5CC5)cc4n3)(CO1)C2` (stereo not shown) [Example 554] showed a pIC50 of 9.10.
Regarding `Cc1cnc2c(NC(=O)c3cn4cc(C56CCC(C)(C5)OC6)nc4cc3OC3CC3)cnn2c1` (stereo not shown) [Example 555], the pIC50 was 8.80. Compared with the last molecule, the pIC50 is 0.30 log units lower.
Still for that read-out and setting: for `CC12CCC(c3cn4cc(C(=O)Nc5cnn6cc(F)cnc56)c(OC5CC5)cc4n3)(CO1)C2` (stereo not shown) [Example 556] the value was 9.30; for `Cn1cccc(NC(=O)c2cn3cc(C45CCC(C)(C4)OC5)nc3cc2OC2CCCC2)c1=O` (stereo not shown) [Example 558], 8.96.
Same read-out and setting: for `CC[C@H](C)Oc1cc2nc(C34COC(C)(C3)C4)cn2cc1C(=O)Nc1cnn2cc(C)cnc12` [Example 559] the value was 9.15; for `CC[C@@H](C)Oc1cc2nc(C34COC(C)(C3)C4)cn2cc1C(=O)Nc1cnn2cc(C)cnc12` [Example 560], 8.92.

The assay is the same for the next values; noted with them: IRAK4 Biochemical Assay (1 mM ATP, 2 h) IC50 (μM), 1 mM ATP, 2 h, 100 pM IRAK4.
As to `COc1cccc(NC(=O)c2cn3cc(C45COC(C)(C4)C5)nc3c(F)c2OC(C)C)n1` [Example 548, 8-Fluoro-7-isopropoxy-N-(6-methoxypyridin-2-yl)-2-(1-methyl-2-oxabicyclo[2.1.1]hexan-4-yl)imidazo[1,2-a]pyridine-6-carboxamide trifluoroacetate], it took 0.0082 µM to reach half-maximal inhibition (IC50).
